Read-outs that look alike come from different tables or passages of the source.
What was measured:
[1] = system: MycspAAO; assay: initial rates from HMF concentration over time, Lineweaver-Burk; assay type: biochemical, Mycobacterium sp. MS1601; conditions: 0.1-80 mM HMF, 10 µg/ml enzyme, 100 mM sodium phosphate pH 8, 30 °C
[2] = system: MycspAAO; conditions: 0.1-80 mM HMF, 10 µg/ml enzyme, 100 mM sodium phosphate pH 8, 30 °C

O=Cc1ccc(CO)o1 [5-hydroxymethylfurfural]
Km [1]: 3300 ± 300 µM | Km [2]: 1900 ± 5 µM

From PMC9328741 (Microbial Biotechnology, 2022)
